# Test results taken from patent publication US20160316750A1, “Compounds, Compositions and Methods for Attracting and/or Arresting Bed Bugs” (priority 2013, published 2016).
# Assays:
# Cimex lectularius [1] = test: large Plexiglass arena bioassay with baited and control shelters; type: in vivo; settings: adult males
# Source text: The large two-chamber Plexiglass arena (180 cm long×12 cm high×13 cm wide) was designed with a central divider (180 cm long×5.5 cm high) to accommodate two pieces of wood (162 cm long×3.8 cm wide×0.8 cm high), each piece for testing the response of a single bed bug to a pheromone-baited shelter or a control shelter (see insert in FIG. 1,b) which were randomly assigned to either end of the wood. […] For each replicate, a single bed bug was placed in the center of the wood piece just prior to the end of the 14-h photophase, and its position was scored the next morning after the onset of the photophase.
# Experiments 68-75 also investigated the effect of the volatile pheromone components (VPCs) (E)-2-hexenal, (E)-2-octenal, dimethyl disulfide, dimethyl trisulfide and 2-hexanone, and the effect of the less-volatile pheromone component histamine (H), on attraction and arrestment of bed bugs. Treatment stimuli consisted of filter paper (4×2.2 cm) impregnated with H (2,000 μg) and covered with a piece of corrugated cardboard shelter (3×2.2 cm), and of VPCs formulated at a high dose (500 μg; Experiments 68-74) or a medium dose (50 μg; Experiment 75) in mineral oil (0.5 ml) and pipetted into the inverted lid of a 20-ml scintillation vial resting on top of the shelter (FIG. 1). Control stimuli were of identical design but the filter paper contained no H, and the mineral oil contained no VPCs.
# bed bugs = test: shelter traps in a heavily infested residential apartment (Room 106); type: in vivo, Cimex lectularius; settings: 24-h periods; for Mean ± SE number insects in baited shelter: Exp. 76-79, paired shelters; for Mean (± SE) number insects in control shelter: Exp. 76-79, unbaited shelter paired with the baited shelter
# Source text: To determine whether bed bugs responded to synthetic pheromone lures not only in large arena laboratory bioassays but also in infested premises (residential apartments), we placed pheromone-baited shelter traps (see FIG. 1) in apartments with known or suspected bed bug infestations. […] Based on 24-hour trapping results in multiple apartments, we selected a single, heavily infested apartment (hereafter referred to as Room 106) for further testing of synthetic bed bug pheromone lures.
# Replicates (n=15-20) of each experiment consisted of paired shelters placed against a wall or furniture, with approximately 30-cm spacing between paired shelters and >1 m spacing between shelter pairs. For each shelter pair within each experiment, pheromone and control treatments were randomly assigned, and placement of replicates was alternated between the two experiments of Set 1 and Set 2. Because not more than 10 shelter pairs could be accommodated in Room 106 at any time, experimental data were collected over several consecutive 24-h periods. Every morning at 9:00, shelters were collected from Room 106 and immediately placed into separate labelled zipper lock bags which were then put on dry ice to kill the bed bugs that had entered a shelter. Bed bugs in each shelter were later counted in the laboratory under a microscope, noting their developmental stage (1st, 2nd, 3rd, 4th instar, adult), sex (male, female), and evidence (or not) for blood feeding prior to entry into a shelter Immediately following the removal of bed bug shelters from Room 106 each morning, new pre-prepared shelters were pheromone-baited (treatment) or not (control) and their position within shelter pairs randomly assigned (see above), again alternating placement of shelter pairs between Experiments 76 and 77 (Set 1) and between Experiments 78 and 79 (Set 2).
# Cimex lectularius [2] = test: three-dish, dual-choice olfactometer bioassay; type: in vivo
# Source text: Bioassays were run in dual-choice olfactometers and in large Plexiglass arenas (FIG. 1). Dual-choice olfactometers consisted of two lateral Pyrex® glass Petri dishes, connected to a central dish (all dishes 3×9 cm inner diameter) via a Pyrex® glass tube (2.5 cm long×2 cm inner diameter). The dishes in this olfactometer mimic the natural still-air shelters in which bed bugs spend the day. Prior to the start of bioassays, a disc of paper towelling (9 cm diameter) was placed into each dish and a strip of paper towelling (2.4×0.6 cm) was inserted into the connecting glass tubing to provide traction for walking bed bugs. In addition, a piece of filter paper (2×3 cm; Whatman) was placed into each lateral dish and covered with a piece of cardboard (2×2 cm) as a refuge for bioassay insects.
# Treatment and control stimuli were randomly assigned to each lateral dish. Olfactometers were enclosed in opaque plastic bins to prevent light from entering and affecting the insects' response. For each replicate, a single 3rd, 4th or 5th instar C. lectularius nymph was released into the central chamber of the olfactometer, which was then covered with a glass plate to prevent escape. The single bed bugs in each olfactometer were then allowed to explore all chambers. Each insect was released into an olfactometer at the end of the 14-h photophase allowing it to explore the chambers during 10 h of darkness, and to come to rest in one of the shelters during 10 h of light. After this 20-h period, the insect's position within the olfactometer was recorded. Any insects not found in a lateral chamber were recorded as non-responders. All experimental replicates were run at 24±2° C. and 30-60% RH. Olfactometers were washed with Sparkleen detergent (Fisher Scientific Co, Pittsburgh, Pa., USA), and were oven-dried (Precision, Winchester, Va., USA) between each bioassay.
# To determine whether a blend of the 15 bed bug feces volatiles that were identified in bed bug feces (see EXAMPLE 11) attracts bed bugs and thus contains one or more bed bug pheromone components, the synthetic blend (SB) was tested at a medium dose (50 μg; Experiment 45), a low dose (5 μg; Experiment 46), and a very low dose (0.5 μg; Experiment 47) for the response of bed bugs in three-dish, dual-choice olfactometers (see EXAMPLE 2, FIG. 1). At each dose tested, all components were formulated in equal amounts in mineral oil which was pipetted into the inverted lid of a 4-ml vial. The vial was then placed on top of the corrugated cardboard shelter (see FIG. 1) in the randomly assigned treatment dish of the olfactometer (see EXAMPLE 2). The control stimulus consisted of the same type of lid on the corrugated cardboard of the control dish of the olfactometer containing mineral oil without synthetic test chemicals.
# [3] = baited shelter 1 vs unbaited shelter 2, VPCs 500 μg, histamine 2,000 μg
structure (smiles),measurement,setting,value
"NCCc1c[nH]cn1 [H, histamine]",No. insects in shelter 2,"Cimex lectularius [1]; Exp. 72, H (2,000 μg) in shelter 2 vs VPC (500 μg) in shelter 1",14
same,No. insects in shelter 2,"Cimex lectularius [1]; Exp. 74, H (2,000 μg) in shelter 2 vs VPC (500 μg) + H in shelter 1",5
same,No. insects in shelter 2,"Cimex lectularius [1]; Exp. 75, H (2,000 μg) in shelter 2 vs VPC (50 μg) + H in shelter 1",0
same,No. insects in shelter 1,Cimex lectularius [1]; [3],12
same,No. insects not responding,Cimex lectularius [1]; [3],5
same,No. insects in shelter 2,"Cimex lectularius [1]; unbaited shelter 2, bait in shelter 1, VPCs 500 μg, histamine 2,000 μg",1
same,No. insects in shelter 2,"Cimex lectularius [1]; unbaited shelter 2, bait in shelter 1, VPCs 500 μg, histamine 2,000 μg, listed as histamine",one
same,Mean ± SE number insects in baited shelter,bed bugs,6.06 ± 1.28
same,Mean ± SE number insects in baited shelter,bed bugs; listed as histamine,6.06
same,Mean (± SE) number insects in control shelter,bed bugs,4.53 ± 1.8
same,Mean (± SE) number insects in control shelter,bed bugs; listed as histamine,4.53
same,No. insects not responding,"Cimex lectularius [2]; Exp. 23-37, nymphs, bait amounts in micrograms",3
same,No. insects in control chamber,"Cimex lectularius [2]; Exp. 23-37, nymphs, bait in the other chamber, amounts in micrograms",10
same,No. insects in bait chamber,"Cimex lectularius [2]; Exp. 23-37, nymphs, numbers in parentheses of the bait = amounts in micrograms",35
same,arrestment response by form of histamine (in words),"Cimex lectularius [2]; Experiments 26-28, dimethylaminoethanol 20 μg and histamine 20 μg as base, salt or base and salt",only as a base elicits the bed bugs' arrestment response
same,bioactivity alone (in words),"Cimex lectularius [2]; Experiments 36-37, alone at 200 μg, nymphs",bioactive on its own
